According to PubChem BioAssay (NCI):
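Results reflect a 48-hour exposure of cells in 96-well plates to compound at five concentrations. GI50 marks 50% less growth. TGI: total growth inhibition.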

Tests used:
Assay in all cases: growth of human tumour cells (NCI), 48 h
SK-OV-3 ovarian = system: SK-OV-3 ovarian
SF-295 CNS = system: SF-295 CNS
UACC-62 melanoma = system: UACC-62 melanoma
SF-268 CNS = system: SF-268 CNS
HS 578T breast = system: HS 578T breast
SW-620 colon = system: SW-620 colon
OVCAR-4 ovarian = system: OVCAR-4 ovarian
MCF7 breast = system: MCF7 breast
LOX IMVI melanoma = system: LOX IMVI melanoma
NCI-H226 lung = system: NCI-H226 lung
TK-10 renal = system: TK-10 renal
SNB-19 CNS = system: SNB-19 CNS
PC-3 prostate = system: PC-3 prostate
HL-60(TB) leukemia = system: HL-60(TB) leukemia
OVCAR-5 ovarian = system: OVCAR-5 ovarian
CCRF-CEM leukemia = system: CCRF-CEM leukemia
SK-MEL-28 melanoma = system: SK-MEL-28 melanoma
MALME-3M melanoma = system: MALME-3M melanoma
A498 renal = system: A498 renal
SN12C renal = system: SN12C renal
NCI-H522 lung = system: NCI-H522 lung
RXF 393 renal = system: RXF 393 renal
IGROV1 ovarian = system: IGROV1 ovarian
A549 NSCLC = system: A549 NSCLC
OVCAR-3 ovarian = system: OVCAR-3 ovarian
UACC-257 melanoma = system: UACC-257 melanoma
KM12 colon = system: KM12 colon
HOP-92 NSCLC = system: HOP-92 NSCLC
786-0 renal = system: 786-0 renal
K-562 leukemia = system: K-562 leukemia
NCI/ADR-RES ovarian = system: NCI/ADR-RES ovarian
MDA-MB-435 = system: MDA-MB-435
OVCAR-8 ovarian = system: OVCAR-8 ovarian
T-47D breast = system: T-47D breast
HOP-62 NSCLC = system: HOP-62 NSCLC
SR leukemia = system: SR leukemia
ACHN renal = system: ACHN renal
HCT-15 colon = system: HCT-15 colon
COLO 205 colon = system: COLO 205 colon
DU-145 prostate = system: DU-145 prostate
SF-539 CNS = system: SF-539 CNS
MOLT-4 leukemia = system: MOLT-4 leukemia
RPMI-8226 leukemia = system: RPMI-8226 leukemia
CAKI-1 renal = system: CAKI-1 renal
U251 CNS = system: U251 CNS
HT29 colon = system: HT29 colon
SK-MEL-5 melanoma = system: SK-MEL-5 melanoma
NCI-H23 lung = system: NCI-H23 lung
MDA-MB-468 breast = system: MDA-MB-468 breast
NCI-H460 lung = system: NCI-H460 lung
BT-549 breast = system: BT-549 breast
HCC-2998 colon = system: HCC-2998 colon

O=C(Nc1cc(Cl)cc(Cl)c1)Nc1cc(Cl)cc(Cl)c1
GI50 (SK-OV-3 ovarian): 2.4 µM | TGI (SK-OV-3 ovarian): 6.31 µM | GI50 (SF-295 CNS): 1.74 µM | TGI (SF-295 CNS): 4.4 µM | GI50 (UACC-62 melanoma): 2.48 µM | TGI (UACC-62 melanoma): 14.3 µM | GI50 (SF-268 CNS): 3.31 µM | TGI (SF-268 CNS): > 100 µM | GI50 (HS 578T breast): 2.69 µM | TGI (HS 578T breast): 8.47 µM | GI50 (SW-620 colon): 3.4 µM | TGI (SW-620 colon): > 100 µM | GI50 (OVCAR-4 ovarian): 3.54 µM | TGI (OVCAR-4 ovarian): > 100 µM | GI50 (MCF7 breast): 2.28 µM | TGI (MCF7 breast): 7.37 µM | GI50 (LOX IMVI melanoma): 2.1 µM | TGI (LOX IMVI melanoma): 4.54 µM | GI50 (NCI-H226 lung): 2.95 µM | TGI (NCI-H226 lung): > 100 µM | GI50 (TK-10 renal): 3.27 µM | TGI (TK-10 renal): > 100 µM | GI50 (SNB-19 CNS): 3.05 µM | TGI (SNB-19 CNS): > 100 µM | GI50 (PC-3 prostate): 2.42 µM | TGI (PC-3 prostate): > 100 µM | GI50 (HL-60(TB) leukemia): 1.57 µM | TGI (HL-60(TB) leukemia): 4.07 µM | GI50 (OVCAR-5 ovarian): 2.91 µM | TGI (OVCAR-5 ovarian): > 100 µM | GI50 (CCRF-CEM leukemia): 2.55 µM | TGI (CCRF-CEM leukemia): 8.04 µM | GI50 (SK-MEL-28 melanoma): 2.75 µM | TGI (SK-MEL-28 melanoma): > 100 µM | GI50 (MALME-3M melanoma): 1.92 µM | TGI (MALME-3M melanoma): 5.13 µM | GI50 (A498 renal): 2.24 µM | TGI (A498 renal): 6.51 µM | GI50 (SN12C renal): 2.66 µM | TGI (SN12C renal): 9.92 µM | GI50 (NCI-H522 lung): 1.23 µM | TGI (NCI-H522 lung): 5.22 µM | GI50 (RXF 393 renal): 2.56 µM | TGI (RXF 393 renal): 8.66 µM | GI50 (IGROV1 ovarian): 3.52 µM | TGI (IGROV1 ovarian): > 100 µM | GI50 (A549 NSCLC): 2.02 µM | TGI (A549 NSCLC): > 100 µM | GI50 (OVCAR-3 ovarian): 2.92 µM | TGI (OVCAR-3 ovarian): > 100 µM | GI50 (UACC-257 melanoma): 2.35 µM | TGI (UACC-257 melanoma): 6.42 µM | GI50 (KM12 colon): 2.97 µM | TGI (KM12 colon): 9.44 µM | GI50 (HOP-92 NSCLC): 1.99 µM | TGI (HOP-92 NSCLC): 6.02 µM | GI50 (786-0 renal): 3 µM | TGI (786-0 renal): > 100 µM | GI50 (K-562 leukemia): 2.5 µM | TGI (K-562 leukemia): 12.8 µM | GI50 (NCI/ADR-RES ovarian): 2.17 µM | TGI (NCI/ADR-RES ovarian): 8.41 µM | GI50 (MDA-MB-435): 3.11 µM | TGI (MDA-MB-435): > 100 µM | GI50 (OVCAR-8 ovarian): 2.9 µM | TGI (OVCAR-8 ovarian): > 100 µM | GI50 (T-47D breast): 3.04 µM | TGI (T-47D breast): > 100 µM | GI50 (HOP-62 NSCLC): 2.61 µM | TGI (HOP-62 NSCLC): 8.74 µM | GI50 (SR leukemia): 1.72 µM | TGI (SR leukemia): 4.1 µM | GI50 (ACHN renal): 2.75 µM | TGI (ACHN renal): > 100 µM | GI50 (HCT-15 colon): 2.18 µM | TGI (HCT-15 colon): > 100 µM | GI50 (COLO 205 colon): 1.99 µM | TGI (COLO 205 colon): 3.5 µM | GI50 (DU-145 prostate): 3.89 µM | TGI (DU-145 prostate): > 100 µM | GI50 (SF-539 CNS): 2.26 µM | TGI (SF-539 CNS): 6.07 µM | GI50 (MOLT-4 leukemia): 1.82 µM | TGI (MOLT-4 leukemia): 4.42 µM | GI50 (RPMI-8226 leukemia): 0.861 µM | TGI (RPMI-8226 leukemia): 3.97 µM | GI50 (CAKI-1 renal): 2.79 µM | TGI (CAKI-1 renal): > 100 µM | GI50 (U251 CNS): 2.75 µM | TGI (U251 CNS): 11.5 µM | GI50 (HT29 colon): 2.88 µM | TGI (HT29 colon): 14.9 µM | GI50 (SK-MEL-5 melanoma): 1.74 µM | TGI (SK-MEL-5 melanoma): 3.28 µM | GI50 (NCI-H23 lung): 1.86 µM | TGI (NCI-H23 lung): 5.55 µM | GI50 (MDA-MB-468 breast): 2.27 µM | TGI (MDA-MB-468 breast): 6.48 µM | GI50 (NCI-H460 lung): 2.11 µM | TGI (NCI-H460 lung): > 100 µM | GI50 (BT-549 breast): 2.45 µM | TGI (BT-549 breast): 7.85 µM | GI50 (HCC-2998 colon): 3.13 µM | TGI (HCC-2998 colon): > 100 µM
